Test results reported in patent publication US20180009764A1, “METHOD FOR TREATING MACROPHAGE MIGRATION INHIBITORY FACTOR (MIF)-IMPLICATED DISEASES AND CONDITIONS WITH IODO PYRIMIDINE DERIVATIVES” (UNIVERSITY OF LOUISVILLE RESEARCH FOUNDATION, INC., priority 2009, published 2018).
In brackets after ≈: the same amount, converted by molar mass.

Legend:
MIF [1] = target: T1, MIF (Mus musculus, UniProt P34884); assay: MIF liver lysates enzymatic activity ex vivo (L-dopachrome tautomerase); details: mice; IP 1 mg in corn oil every day for 3 days; livers 6 hours after last injection; FIG. 1
T1 construct: from tissue; host or cells: mouse liver (A7); liver, lung and brain of C57BL6 mice (A20)
Description: This experiment, using an ex-vivo approach and the tautomeric reaction of L-dopachrom, was designed to ascertain the level of inhibition of MIF following administration of the compounds of this invention via oral, IV, IP or any other route of administration. Mice were used in the example illustrated below, but other animals could be used as well. Groups of 3 mice were administered IP 1 mg of 4-IPP and ACT-002 resuspended in 100 μl of corn oil every day for 3 days. Mice were sacrificed 6 hours after the last injection and livers were harvested. ˜1 gram pieces of liver were lysed in PBS containing 1 mM NaVO4, 2 mM NaF and a protease inhibitor cocktail (Roche Biochemical, Indianapolis, Ind.) using dounce-homogenization on ice. 500 μg of liver lysates were added to a final volume of 700 μl PBS in plastic cuvettes. 4 mM L-3, 4-dihydroxyphenylalanine methyl ester and 8 mM sodium periodate (Sigma-Aldrich) were combined in a 3:2 ratio to form L-dopachrome methyl ester. 300 μL of L-dopachrome methyl ester was then immediately added to the cuvettes; the OD475 nm was measured 2 min and 4 min after addition of the L-dopachrome.

MIF [2] = target: T2, MIF (Homo sapiens, UniProt P14174); assay: MIF cell lysate enzymatic inhibition; format: biochemical; details: cell lysates
T2 construct: the enzymatic activity of MIF present in cell lysates; endogenous in cells
T2 sequence (P14174 2-115 limits assumed): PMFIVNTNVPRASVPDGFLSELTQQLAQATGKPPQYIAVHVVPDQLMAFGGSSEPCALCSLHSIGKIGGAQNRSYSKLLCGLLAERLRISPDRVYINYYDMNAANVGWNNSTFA
Description: Normal or transformed cell lysates can be used to determine the concentration inhibiting the enzymatic activity of MIF present in cell lysates. Cells are cultured in the appropriate media to the required number of cells, collected, and lysed. Compounds to be characterized are solubilized in DMSO and serial dilutions are performed in order to obtain a range of concentrations including complete and no quantifiable inhibition.

[3] = test system: primary human T lymphocytes; assay: Anti-CD3 induced T lymphocyte activation/proliferation (flow cytometry); format: cell-based; details: 25 μM
Description: In order to assess the ability of MIF antagonists to disrupt autoimmune-associated T cell activation, primary human T lymphocytes were prepared using standard Ficoll-gradient preparations. 1×10^6 lymphocytes/ml were resuspended in RPMI/10% FCS and plated onto anti-CD3 antibodies previously immobilized onto tissue culture plates. Control, vehicle control (0.1% DMSO), 25 μM 4-IPP or 25 μM ACT-003 were added to cells and allowed to incubate for 48 hours. Cells were lifted, washed and stained with anti-CD4 or anti-CD8 antibodies and then analyzed by flow cytometry.
To validate the effects of MIF antagonists on T lymphocyte activation, experiments were set up exactly as described above and, 48 hours later, treated and untreated lymphocytes were stained with an anti-CD25 antibody. CD25 is also known as the high affinity IL-2 receptor—a very well characterized and frequently marker of T lymphocyte activation.
In order to investigate the relative kinetics of when 4-IPP and ACT-003 are acting in blocking T lymphocyte activation, we repeated the experiment described above but harvested lymphocytes only 16 hours after anti-CD3 plating. At this early time point during T lymphocyte activation, CD69 is found to be expressed and is usually considered to be an “early marker” of lymphocyte activation.
Finally, to confirm that proliferation of CD4+ and CD8+ T lymphocytes is blocked by 4-IPP-based MIF antagonists, we repeated the experiment as described above, added labeled-BrdU to cells, stained with either labeled anti-CD4 or anti-CD8 antibodies and then assessed relative CD4/CD8 and BrdU labeling in each treatment group.

[4] = Microsomal stability in human liver microsomes; format: in vitro ADME; details: 15 min; 37° C.; 1 mM NADPH
[5] = Microsomal stability in human liver microsomes; format: in vitro ADME
Description: Stability in human liver microsomes was tested over […] at 37° C. using pooled mixed gender human liver microsomes. Liver microsomes were prepared at 1.0 mg/ml of microsomal protein in a 100 mM potassium phosphate pH 7.4 buffer with 1 mM NADPH. The media was incubated at 37° C. with the compound in solution in DMSO. The concentration of the compound was followed by LC/MS-MS as a function of time. Samples were assayed at t=0, 30, 60 and 120 minutes. Testosterone was used as a positive control. The same experiment was performed with mouse liver microsomes instead of human liver microsomes.

[6] = Solubility in varying solvents; format: physicochemical; details: 21 °C, 20-22° C.
[7] = Caco-2 cell permeability and transport; format: in vitro ADME; design: Caco-2 Permeability Papp B-A / Caco-2 Permeability Papp A-B: unit not given here; details: human, Caco-2, pH 7.4
Description: (§1) Cell permeability and transport mechanisms in Caco-2 and MDR1-MDCK monolayers experiments were performed in triplicate in the apical-to-basolateral and basolateral-to-apical direction using […]® wells containing either Caco-2 or MDR1-MDCK monolayers. A modified Hanks buffer pH 7.4 was used in both reservoir and receiver wells with the addition of 1% BSA in the receiver side. Confluent monolayers were used and their integrity was verified using reference compounds (Atenolol as a low permeability reference compound and Propanolol as a high permeability reference compound). A sample in the basolateral and apical sides was taken after 2 hours and the concentration measured by LC/MS-MS.

Caco-2 monolayers = assay: Caco-2 cell permeability and transport; format: in vitro ADME; design: Caco-2 Permeability Papp B-A / Caco-2 Permeability Papp A-B: unit not given here
Description: as §1

[8] = test system: Chick Chorioallantoic Membrane (CAM); assay: CAM assay with matrigel plugs; format: in vivo
Description: 8 groups with 10 embryos in each group were used in the experiment described below. Fresh fertile eggs were incubated for 3 days in a standard egg incubator at 37° C. for 3 days. On Day 3, eggs were cracked under sterile conditions and embryos were placed into 20×100 mm plastic plates and cultivated at 37° C. in an embryo incubator with a water reservoir on the bottom shelf. Air was continuously bubbled into the water reservoir using a small pump so that the humidity in the incubator is kept constant. On Day 6, a sterile silicon “o” ring was placed on each CAM and test compound dissolved in 0.5% methylcellulose was placed into each “o” ring in a sterile hood. Paclitaxel was used as a positive control. Embryos were returned to the incubator after addition of test material. Control embryos received 10 μL of vehicle alone. On Day 8, embryos were removed from the incubator and kept at room temperature while blood vessel density were determined under each “o” ring using an image capturing system at a magnification of 160×. The blood vessel density was measured using an angiogenesis scoring system in that arithmetic numbers 0 to 5 (or exponential numbers 1 to 32) are used to indicate number of blood vessels present at the treatment sites on the CAM. Number 5 represents the highest density and 0 represents no angiogenesis. The percent of inhibition at each dosing site was calculated using the score recorded for that site divided by the mean score obtained from the appropriate control samples for each individual experiment. The percent of inhibition for each dose of a given compound was calculated by pooling all results obtained for that dose from 8-10 embryos.
Another experiment was performed using a protocol similar to the one described above but using matrigel plugs instead of o ring to deliver the test material to the CAM. Results are summarized in Table 9 below and show a statistically significant inhibition of angiogenesis at the high concentrations of test material.

Du 145 = assay: Inhibition of tumor cells proliferation (CellTiter Glo); format: cell-based; details: Homo sapiens, 72 hours
Description: Inhibition of the proliferation of tumor cells was investigated in vitro in several tumor cell lines. Cells of the desired tumor cell line were plated at 2×10^5 cells/ml in 96 well plates. Twice the indicated concentrations of the compounds of the invention were added to cells the following day in an equal volume of media. 72 hours later, cells were lysed and subjected to ATP determination using the CellTiter Glo-Luminescent Cell Viability Assay kit (Promega, Madison, Wis.). Experiments were done in triplicate. Results for the inhibition of cells proliferation are reported as IC50 (the concentration leading to a 50% inhibition of proliferation of the cell population) and are listed in Table 6. FIGS. 3 and 4 show bar graphs comparing the IC50s of specific embodiments of compounds of the invention across multiple tumor cell lines.

MIF [9] = target: T1, MIF; assay: Oral bioavailability: ex vivo MIF enzymatic activity in liver, brain and lung after IP and PO dosing; design: species or system C57BL6 mice
Description: The compounds were administered orally (PO) and intraperitoneally (IP) to healthy animals. The inhibition of the MIF liver enzymatic activity determined ex vivo following IP and PO dosing is similar, indicating high oral bioavailability. Furthermore, brain and lung tissues were collected and processed to determine MIF enzymatic activity in these organs. […] Inhibition of MIF enzyme was determined […] following dosing of MIF-002 at 40 mg/kg once a day for three days, both IP and PO (normal C57BL6 mice, n=3). Tissues were collected at sacrifice and processed. Liver, lung, and brain tissues were collected, processed, and used for the determination of MIF enzyme activity. Values are expressed as a percentage calculated using DMSO as control (no inhibition).
Two additional compounds were tested, MIF-035 and MIF-041.

p53 = p53 up regulation, p53 luciferase assay; format: cell-based; details: 10 μM; FIG. 5
Description: The up regulation of p53 was determined using a commercially available p53 luciferase assay kit. 1×10^5 cells/ml were plated in a 24 well plate and allowed to adhere overnight. MIF antagonists were added to the cells at the indicated concentrations for 16 hours and transiently co-transfected with 0.125 μg/well of p53-responsive luciferase promoter plasmid (Promega, Madison, Wis.) together with 0.0125 μg/well Renilla pRL-null plasmid (Promega) using Lipofectamine (Invitrogen) transfection reagent. After 24 hrs, Firefly and Renilla luciferase activities were measured by the Dual Luciferase Reporter Assay System (Promega, Madison, Wis.) on a TD-20/20 luminometer (Turner Designs).

LOX-IMV1 tumor cell line = assay: Inhibition of cell migration (Oris Cell Migration Assay); format: cell-based; details: 72 hrs, even at low concentrations (0.03 μM), FIG. 7
Description: The LOX-IMV1 tumor cell line was used to determine the inhibition of cell migration using the Oris Cell Migration Assay kit (Promega, Mich.). Briefly, adherent cells were seeded into each well of the kit according to kit instructions. Concentrations of cells in the migration zone were determined to calculate IC50 values. Prior to the migration assay, cell proliferation IC50s were determined to differentiate between inhibition of proliferation and migration. […] A slightly modified method was also used to determine the inhibition of invasion.

Ic1cc(-c2ccccc2)ncn1 [4-IPP, 4-iodo-6-phenylpyrimidine, reference compound]
MIF liver enzyme inhibition (MIF [1]): significant in vivo inhibition of MIF
IC50 (MIF [2]): > 2000 nM
CD69 expression ([3]; 16 hours, FIGS. 17 and 18): only a marginal effect on CD69 expression
CD4 and CD8 T lymphocytes after anti-CD3 activation ([3]; 48 hours, FIGS. 13 and 14): significantly fewer CD4 and CD8 T lymphocytes
Anti-CD3-induced CD25 expression ([3]; 48 hours, FIGS. 15 and 16): almost completely blocked the anti-CD3-induced CD25 expression
BrdU labeling of CD8+ and CD4+ T lymphocytes (proliferation) ([3]; 48 hours, FIGS. 19 and 20): almost completely blocked BrdU labeling in both CD8+ and CD4+ T lymphocytes

C[C@]12CC[C@H]3[C@@H](CCC4=CC(=O)CC[C@@]43C)[C@@H]1CC[C@@H]2O [Testosterone, reference compound]
Metabolic Stability in Human Microsomes % Remaining [4]: 56%
Metabolic Stability in Human Microsomes % Remaining ([5]; 0 min, 37° C., 1 mM NADPH): 100%

NC(=O)c1cccc(-c2cc(I)ncn2)c1 [ACT-MIF-035, 4-Iodo-6-(3-aminocarbonylphenyl)pyrimidine]
solubility ([6]; aqueous with cosolvent or surfactant or cyclodextrin, Ethanol/Tween 80): 10000 µg/mL (≈ 30.8 mM)
solubility ([6]; oil or lipid, Corn oil): < 6000 µg/mL
solubility ([6]; organic solvent or mixture, Ethanol): 1400 µg/mL (≈ 4.31 mM)
solubility ([6]; organic solvent or mixture, PEG-300): 13300 µg/mL (≈ 40.9 mM)
solubility ([6]; organic solvent or mixture, Propane-diol): 2700 µg/mL (≈ 8.3 mM)
efflux ratio at 2 h [7]: 1.1
Caco-2 Permeability Class (Caco-2 monolayers): High
Caco-2 Permeability Papp A-B (Caco-2 monolayers; apical-to-basolateral, pH 7.4, 2 hours): 3.1
Caco-2 Permeability Papp B-A (Caco-2 monolayers; basolateral-to-apical, pH 7.4, 2 hours): 3.3
Blood Vessel Counts ([8]; 0.3 nM per CAM): 28.3 ± 1.7
Blood Vessel Counts ([8]; 3 nM per CAM): 27.3 ± 2.4
Blood Vessel Counts ([8]; 30 nM per CAM): 26.7 ± 1.9
IC50 (Du 145): 21700 nM
Oral bioavailability (MIF [9]; judged from ex vivo MIF inhibition after IP and PO dosing): orally bioavailable
Crossing of the blood brain barrier (MIF [9]; judged from ex vivo MIF inhibition in brain): crossed the blood brain barrier
p53 regulation (p53): implicated in p53 regulation
Inhibition of cell migration (LOX-IMV1 tumor cell line): significant inhibition of migration
IC50 (MIF [2]): 185 nM
Metabolic Stability in Human Microsomes % Remaining ([5]; both, human, microsomes, 0 h, pH 7.4): 100%
Metabolic Stability in Human Microsomes % Remaining ([5]; both, human, microsomes, 1 h, pH 7.4): 92%
